Molecules are shown by their SMILES.

The results in this text go back to paper PMC6120666 (The EMBO Journal, 2018).

Common to all, as to assay: Drug affinity chromatography with c-ponatinib and LC-MS/MS (ponatinib interactome)
Type in all cases: binding

For assay [1], the target named is T1, proteins of U2OS cell lysate (Homo sapiens, UniProt P62333).
T1 construct: Proteins enriched by c-ponatinib from U2OS cell lysate; endogenous in cells; host or cells: U2OS cell lysate
To be noted: PSMC6, 26S protease regulatory subunit 10B. A digest of the protocol:
(§1)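 U2OS cell lysate in NP-40 lysis buffer (2 mg protein per pulldown) was incubated with amine-derivatized NHS beads for 2 h at 4 °C. Bound proteins were washed, eluted with 100 mM formic acid, reduced, alkylated and trypsin-digested, then identified by nano-UPLC–MS/MS on Orbitrap instruments with a 60 min gradient.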

The target of assay [2] is T2, proteins of U2OS cell lysate (Homo sapiens, UniProt Q15021).
T2 construct: Proteins enriched by c-ponatinib from U2OS cell lysate; endogenous in cells; host or cells: U2OS cell lysate
To be noted: NCAPD2, Condensin complex subunit 1. A digest of the protocol:
as §1

In assay [3] the target is T3, proteins of U2OS cell lysate (Homo sapiens, UniProt P55036).
T3 construct: Proteins enriched by c-ponatinib from U2OS cell lysate; endogenous in cells; host or cells: U2OS cell lysate
T3 sequence (P55036 whole entry): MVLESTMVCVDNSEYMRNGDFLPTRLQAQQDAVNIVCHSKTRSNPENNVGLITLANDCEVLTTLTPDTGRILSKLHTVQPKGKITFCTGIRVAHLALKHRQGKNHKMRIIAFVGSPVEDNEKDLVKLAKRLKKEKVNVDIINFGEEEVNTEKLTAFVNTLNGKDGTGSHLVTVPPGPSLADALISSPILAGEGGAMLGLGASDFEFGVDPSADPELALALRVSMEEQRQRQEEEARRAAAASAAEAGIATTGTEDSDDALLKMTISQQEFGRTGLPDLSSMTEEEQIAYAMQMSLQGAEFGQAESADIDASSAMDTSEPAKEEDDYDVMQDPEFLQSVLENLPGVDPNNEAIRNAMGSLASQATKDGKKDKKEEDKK
The settings on record: PSMD4, 26S proteasome non-ATPase regulatory subunit 4. A digest of the protocol:
as §1

For assay [4], the target named is T4, proteins of U2OS cell lysate (Homo sapiens, UniProt P35606).
T4 construct: Proteins enriched by c-ponatinib from U2OS cell lysate; endogenous in cells; host or cells: U2OS cell lysate
The settings on record: COPB2, Coatomer subunit beta. A digest of the protocol: as §1

Assay [5] has as its target T5, proteins of U2OS cell lysate (Homo sapiens, UniProt O76071).
T5 construct: Proteins enriched by c-ponatinib from U2OS cell lysate; endogenous in cells; host or cells: U2OS cell lysate
The settings on record: CIAO1, Probable cytosolic iron-sulfur protein assembly protein CIAO1. The method in brief:
as §1

In assay [6] the target is T6, proteins of U2OS cell lysate (Homo sapiens, UniProt Q96RR4).
T6 construct: Proteins enriched by c-ponatinib from U2OS cell lysate; endogenous in cells; host or cells: U2OS cell lysate
To be noted: CAMKK2, Calcium/calmodulin-dependent protein kinase kinase 2. The method in brief: as §1

The target in assay [7] is T7, proteins of U2OS cell lysate (Homo sapiens, UniProt P51617).
T7 construct: Proteins enriched by c-ponatinib from U2OS cell lysate; endogenous in cells; host or cells: U2OS cell lysate
T7 sequence (P51617 whole entry): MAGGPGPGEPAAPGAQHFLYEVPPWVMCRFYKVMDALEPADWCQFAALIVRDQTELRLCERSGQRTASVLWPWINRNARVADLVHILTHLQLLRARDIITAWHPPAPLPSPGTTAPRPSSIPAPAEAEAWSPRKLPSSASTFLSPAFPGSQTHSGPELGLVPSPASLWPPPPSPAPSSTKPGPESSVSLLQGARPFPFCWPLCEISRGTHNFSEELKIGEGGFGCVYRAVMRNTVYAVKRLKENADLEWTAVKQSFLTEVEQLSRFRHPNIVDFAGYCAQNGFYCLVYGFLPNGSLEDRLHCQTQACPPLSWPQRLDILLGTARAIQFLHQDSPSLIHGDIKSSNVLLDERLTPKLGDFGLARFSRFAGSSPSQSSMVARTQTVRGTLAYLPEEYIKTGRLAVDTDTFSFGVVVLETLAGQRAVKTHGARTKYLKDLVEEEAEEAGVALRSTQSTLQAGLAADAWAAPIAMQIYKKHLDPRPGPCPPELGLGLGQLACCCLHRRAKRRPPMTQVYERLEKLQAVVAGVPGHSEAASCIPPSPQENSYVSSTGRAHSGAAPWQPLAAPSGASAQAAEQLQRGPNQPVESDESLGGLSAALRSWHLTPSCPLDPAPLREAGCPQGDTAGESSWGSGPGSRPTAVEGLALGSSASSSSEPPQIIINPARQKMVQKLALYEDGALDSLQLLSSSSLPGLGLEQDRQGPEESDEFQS
To be noted: IRAK1, Interleukin-1 receptor-associated kinase 1. A digest of the protocol:
as §1

For assay [8], the target named is T8, proteins of U2OS cell lysate (Homo sapiens, UniProt P05141).
T8 construct: Proteins enriched by c-ponatinib from U2OS cell lysate; endogenous in cells; host or cells: U2OS cell lysate
T8 sequence (P05141 whole entry): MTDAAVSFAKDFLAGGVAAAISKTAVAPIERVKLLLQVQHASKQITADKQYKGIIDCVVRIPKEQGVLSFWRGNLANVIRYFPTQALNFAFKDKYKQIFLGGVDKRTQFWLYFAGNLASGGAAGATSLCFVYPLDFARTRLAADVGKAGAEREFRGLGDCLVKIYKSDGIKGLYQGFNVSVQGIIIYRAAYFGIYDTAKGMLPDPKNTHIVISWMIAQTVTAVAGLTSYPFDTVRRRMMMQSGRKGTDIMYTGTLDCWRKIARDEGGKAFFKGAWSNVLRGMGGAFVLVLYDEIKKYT
The settings on record: SLC25A5;SLC25A6;SLC25A4, ADP/ATP translocase 2. The method in brief: as §1

For assay [9], the target named is T9, proteins of U2OS cell lysate (Homo sapiens, UniProt P62249).
T9 construct: Proteins enriched by c-ponatinib from U2OS cell lysate; endogenous in cells; host or cells: U2OS cell lysate
The settings on record: RPS16, 40S ribosomal protein S16. The method in brief:
as §1

Assay [10] concerns the target T10, proteins of U2OS cell lysate (Homo sapiens, UniProt Q0ZGT2).
T10 construct: Proteins enriched by c-ponatinib from U2OS cell lysate; endogenous in cells; host or cells: U2OS cell lysate
The settings on record: NEXN, Nexilin. A digest of the protocol: as §1

In assay [11] the target is T11, proteins of U2OS cell lysate (Homo sapiens, UniProt Q9UHD8).
T11 construct: Proteins enriched by c-ponatinib from U2OS cell lysate; endogenous in cells; host or cells: U2OS cell lysate
The settings on record: SEPT9, Septin-9. The method in brief: as §1

In assay [12] the target is T12, proteins of U2OS cell lysate (Homo sapiens, UniProt O60664).
T12 construct: Proteins enriched by c-ponatinib from U2OS cell lysate; endogenous in cells; host or cells: U2OS cell lysate
To be noted: PLIN3, Perilipin-3. The method in brief: as §1

The target in assay [13] is T13, proteins of U2OS cell lysate (Homo sapiens, UniProt Q14974).
T13 construct: Proteins enriched by c-ponatinib from U2OS cell lysate; endogenous in cells; host or cells: U2OS cell lysate
T13 sequence (Q14974 whole entry): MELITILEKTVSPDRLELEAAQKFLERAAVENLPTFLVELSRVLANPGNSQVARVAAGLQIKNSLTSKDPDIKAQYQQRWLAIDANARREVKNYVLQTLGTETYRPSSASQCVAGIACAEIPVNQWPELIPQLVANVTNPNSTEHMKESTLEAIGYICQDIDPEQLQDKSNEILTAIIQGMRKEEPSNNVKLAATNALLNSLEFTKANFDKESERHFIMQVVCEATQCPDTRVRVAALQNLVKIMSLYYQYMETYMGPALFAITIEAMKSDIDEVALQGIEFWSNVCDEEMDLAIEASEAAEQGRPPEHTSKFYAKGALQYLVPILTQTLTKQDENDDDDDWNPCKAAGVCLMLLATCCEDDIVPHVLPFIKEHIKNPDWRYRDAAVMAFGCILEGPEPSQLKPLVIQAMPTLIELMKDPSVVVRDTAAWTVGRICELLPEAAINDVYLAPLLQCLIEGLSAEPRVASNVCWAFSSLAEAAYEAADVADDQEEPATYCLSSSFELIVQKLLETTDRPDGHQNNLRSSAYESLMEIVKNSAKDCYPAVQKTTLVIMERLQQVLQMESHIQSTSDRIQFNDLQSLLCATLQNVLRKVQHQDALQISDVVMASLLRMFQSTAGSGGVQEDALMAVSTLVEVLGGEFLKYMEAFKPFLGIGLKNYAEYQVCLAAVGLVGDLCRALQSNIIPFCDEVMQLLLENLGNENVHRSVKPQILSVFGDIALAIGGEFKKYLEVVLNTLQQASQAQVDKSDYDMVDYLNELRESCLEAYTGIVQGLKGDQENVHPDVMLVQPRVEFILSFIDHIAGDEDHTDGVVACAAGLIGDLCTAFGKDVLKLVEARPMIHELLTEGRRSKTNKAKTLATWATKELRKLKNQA
The settings on record: KPNB1, Importin subunit beta-1. A digest of the protocol: as §1

Assay [14] concerns the target T14, proteins of U2OS cell lysate (Homo sapiens, UniProt P27707).
T14 construct: Proteins enriched by c-ponatinib from U2OS cell lysate; endogenous in cells; host or cells: U2OS cell lysate
The settings on record: DCK, Deoxycytidine kinase. The method in brief:
as §1

In assay [15] the target is T15, proteins of U2OS cell lysate (Homo sapiens, UniProt P27816).
T15 construct: Proteins enriched by c-ponatinib from U2OS cell lysate; endogenous in cells; host or cells: U2OS cell lysate
The settings on record: MAP4, Microtubule-associated protein 4. A digest of the protocol: as §1

Assay [16] deals with T16, proteins of U2OS cell lysate (Homo sapiens, UniProt P61247).
T16 construct: Proteins enriched by c-ponatinib from U2OS cell lysate; endogenous in cells; host or cells: U2OS cell lysate
The settings on record: RPS3A, 40S ribosomal protein S3a. The method in brief:
as §1

The target in assay [17] is T17, proteins of U2OS cell lysate (Homo sapiens, UniProt O94906).
T17 construct: Proteins enriched by c-ponatinib from U2OS cell lysate; endogenous in cells; host or cells: U2OS cell lysate
T17 sequence (O94906 whole entry): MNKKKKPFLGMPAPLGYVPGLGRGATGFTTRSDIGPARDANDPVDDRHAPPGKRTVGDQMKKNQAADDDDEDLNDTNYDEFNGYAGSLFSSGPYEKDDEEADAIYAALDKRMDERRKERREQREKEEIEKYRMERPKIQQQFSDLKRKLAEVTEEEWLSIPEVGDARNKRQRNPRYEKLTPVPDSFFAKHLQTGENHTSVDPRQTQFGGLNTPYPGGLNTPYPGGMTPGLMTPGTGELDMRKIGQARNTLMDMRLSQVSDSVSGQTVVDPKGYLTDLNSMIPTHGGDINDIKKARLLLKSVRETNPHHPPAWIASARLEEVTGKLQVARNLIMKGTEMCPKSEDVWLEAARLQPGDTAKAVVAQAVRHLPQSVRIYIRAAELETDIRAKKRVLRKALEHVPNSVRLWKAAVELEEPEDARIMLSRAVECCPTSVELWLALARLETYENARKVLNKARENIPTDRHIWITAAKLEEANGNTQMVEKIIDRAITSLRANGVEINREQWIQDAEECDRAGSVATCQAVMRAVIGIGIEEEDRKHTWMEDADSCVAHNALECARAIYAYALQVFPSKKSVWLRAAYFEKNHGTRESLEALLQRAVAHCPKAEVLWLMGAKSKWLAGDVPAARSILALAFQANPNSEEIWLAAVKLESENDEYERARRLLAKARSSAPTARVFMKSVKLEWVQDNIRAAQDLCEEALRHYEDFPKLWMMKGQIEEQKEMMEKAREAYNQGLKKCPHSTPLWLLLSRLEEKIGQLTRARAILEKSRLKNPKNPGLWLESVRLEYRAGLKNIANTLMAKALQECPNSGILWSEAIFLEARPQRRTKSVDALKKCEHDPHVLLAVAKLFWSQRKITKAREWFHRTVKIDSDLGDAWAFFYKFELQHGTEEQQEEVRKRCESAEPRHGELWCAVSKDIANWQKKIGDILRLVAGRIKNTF
To be noted: PRPF6, Pre-mRNA-processing factor 6. A digest of the protocol: as §1

Assay [18] has as its target T18, proteins of U2OS cell lysate (Homo sapiens, UniProt Q14203).
T18 construct: Proteins enriched by c-ponatinib from U2OS cell lysate; endogenous in cells; host or cells: U2OS cell lysate
The settings on record: DCTN1, Dynactin subunit 1. A digest of the protocol: as §1

Assay [19] has as its target T19, proteins of U2OS cell lysate (Homo sapiens, UniProt Q13200).
T19 construct: Proteins enriched by c-ponatinib from U2OS cell lysate; endogenous in cells; host or cells: U2OS cell lysate
The settings on record: captured protein PSMD2, Rank 205. A digest of the protocol: as §1

T1 sequence (P62333 whole entry): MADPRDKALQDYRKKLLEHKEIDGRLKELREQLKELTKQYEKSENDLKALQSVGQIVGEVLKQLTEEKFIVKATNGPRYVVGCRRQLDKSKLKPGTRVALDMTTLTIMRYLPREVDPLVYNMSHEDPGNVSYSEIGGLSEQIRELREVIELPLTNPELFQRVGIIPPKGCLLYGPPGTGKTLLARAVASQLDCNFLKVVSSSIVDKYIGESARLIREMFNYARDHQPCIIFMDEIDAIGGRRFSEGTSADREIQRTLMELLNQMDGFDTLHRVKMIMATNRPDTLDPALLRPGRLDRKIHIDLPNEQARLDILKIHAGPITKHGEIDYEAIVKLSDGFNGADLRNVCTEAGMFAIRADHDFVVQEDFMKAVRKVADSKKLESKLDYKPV
T5 sequence (O76071 whole entry): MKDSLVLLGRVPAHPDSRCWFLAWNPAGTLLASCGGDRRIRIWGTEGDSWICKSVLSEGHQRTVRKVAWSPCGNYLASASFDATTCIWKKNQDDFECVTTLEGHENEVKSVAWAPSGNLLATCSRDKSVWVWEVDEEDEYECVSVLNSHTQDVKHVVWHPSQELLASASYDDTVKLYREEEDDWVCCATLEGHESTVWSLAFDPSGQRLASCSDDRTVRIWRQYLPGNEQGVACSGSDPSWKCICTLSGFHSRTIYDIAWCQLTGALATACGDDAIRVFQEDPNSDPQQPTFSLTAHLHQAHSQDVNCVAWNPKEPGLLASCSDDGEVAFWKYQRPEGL
T14 sequence (P27707 whole entry): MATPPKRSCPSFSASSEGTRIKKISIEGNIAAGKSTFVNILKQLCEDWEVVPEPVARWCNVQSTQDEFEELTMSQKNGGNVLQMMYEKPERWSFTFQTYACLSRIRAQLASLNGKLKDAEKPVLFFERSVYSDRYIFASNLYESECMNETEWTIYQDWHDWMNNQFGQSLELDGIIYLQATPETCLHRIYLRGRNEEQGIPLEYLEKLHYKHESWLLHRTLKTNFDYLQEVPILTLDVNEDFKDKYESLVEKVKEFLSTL
T10 sequence (Q0ZGT2 whole entry): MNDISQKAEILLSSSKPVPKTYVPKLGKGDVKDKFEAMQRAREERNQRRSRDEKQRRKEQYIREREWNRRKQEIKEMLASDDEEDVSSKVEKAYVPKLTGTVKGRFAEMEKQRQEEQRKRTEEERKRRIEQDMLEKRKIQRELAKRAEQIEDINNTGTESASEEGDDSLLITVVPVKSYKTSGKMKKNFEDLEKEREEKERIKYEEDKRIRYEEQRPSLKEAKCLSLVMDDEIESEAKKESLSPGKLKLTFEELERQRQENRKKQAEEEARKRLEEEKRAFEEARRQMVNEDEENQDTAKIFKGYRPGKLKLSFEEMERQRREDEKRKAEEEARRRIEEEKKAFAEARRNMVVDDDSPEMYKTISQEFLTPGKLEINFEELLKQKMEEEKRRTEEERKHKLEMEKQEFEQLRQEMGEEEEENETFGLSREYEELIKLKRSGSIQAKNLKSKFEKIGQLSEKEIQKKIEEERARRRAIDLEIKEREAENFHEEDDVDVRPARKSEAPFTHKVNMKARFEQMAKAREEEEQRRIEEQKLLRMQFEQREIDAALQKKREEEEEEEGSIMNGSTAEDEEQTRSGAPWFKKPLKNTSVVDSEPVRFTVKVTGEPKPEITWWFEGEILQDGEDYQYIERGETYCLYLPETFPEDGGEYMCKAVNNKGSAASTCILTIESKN

For `Cc1ccc(C(=O)Nc2ccc(CN3CCN(C)CC3)c(C(F)(F)F)c2)cc1C#Cc1cnc2cccnn12` [PON], the “Average LFQ PON_WT” value is 21.4756 in assay [1]; 21.331 in [2]; 21.0725 in assay [3]; 21.0921 in assay [4]; 21.1391 in [5]; 20.0519 in assay [6]. In addition, the “Average LFQ PON_WT” value is listed as 23.3938 in assay [7]; 25.3771 in assay [8]; 20.8259 in assay [9]; 20.2843 in assay [10]; 23.3795 in assay [11]; 20.1604 in assay [12]. Further, the “Average LFQ PON_WT” value in assay [13] stood at 23.6067; in assay [14], 29.7769; in [15], 23.7532; in assay [16], 21.3119; in assay [17], 19.4979; in assay [18], 21.0359.
Turning to `Cc1ccc(C(=O)Nc2ccc(CN3CCN(CCCN)CC3)c(C(F)(F)F)c2)cc1C#Cc1cnc2cccnn12` [c-ponatinib, reference compound], in assay [19], the “Average LFQ intensity” value was 21.768.
